Results taken from US6090787A, “Antithrombotic agents” (Eli Lilly and Company, priority 1999, dated 2000).
Square brackets hold non-standard residues; d marks the D form. Peptide text beside a SMILES is read from it. dPip = O=C(O)[C@H]1CCCCN1; Sar = CNCC(=O)O

Assays:
[1] = Index of bioavailability (% Relative Activity from plasma TT AUC, oral vs i.v.); type: in vivo; details: dose-adjusted AUC of plasma TT time course, p.o. vs i.v. bolus
Description: Plasma thrombin time (TT) and activated partial thromboplastin time (APTT) are measured with a fibrometer. Blood is sampled from a jugular catheter and collected in syringe containing sodium citrate (3.8%, 1 part to 9 parts blood). […] Parke Davis) at 37° C. For APTT, plasma (0.1 mL) and APTT solution (0.1 mL, Organon Teknika) are incubated for 5 minutes (37° C.) and CaCl2 (0.01 mL, 0.025 M) is added to start coagulation. Assays are done in duplicate and averaged. A measure of bioactivity, plasma thrombin time (TT), served as a substitute for the assay of parent compound on the assumption that increments in TT resulted from thrombin inhibition by parent only. The time course of the effect of the thrombin inhibitor upon TT is determined after i.v. bolus administration to anesthetized rats and after oral treatment of fasted conscious rats. Due to limitations of blood volume and the number of points required to determine the time course from time of treatment to the time when the response returned to pretreatment values, two populations of rats are used. Each sample population represented alternating sequential time points. The average TT over the time course is used to calculate area under the curve (AUC). The index of bioavailability is calculated by the formula shown below and is expressed as percent relative activity. The area under the curve (AUC) of the plasma TT time course is determined and adjusted for the dose. This index of bioavailability is termed "% Relative Activity" and is calculated as [formula] Compound solutions are prepared fresh daily in normal saline and are injected as a bolus or are infused starting 15 minutes before and continuing throughout the experimental perturbation which is 15 minutes in the arteriovenous shunt model and 60 minutes in the FeCl3 model of arterial injury and in the spontaneous thombosis model. Bolus injection volume is 1 mL/kg for i.v., and 5 mL/kg for p.o. and infusion volume is 3 mL/hr.

human thrombin = molecular target: T1, human thrombin (Homo sapiens, UniProt P00734); test: Inhibition of amidase activity of thrombin (Kass), chromogenic substrate; type: biochemical; details: apparent association constant, mean over a range of concentrations
T1 construct: purified human thrombin, Enzyme Research Laboratories; purchased Enzyme Research Laboratories, South Bend, Indiana
In short: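 Bovine or human thrombin in 0.03 M Tris, 0.15 M NaCl, pH 7.4, with compound in 50% aqueous methanol and chromogenic substrate (0.25 mg/mL solution); hydrolysis followed at 405 nm (p-nitroaniline). Free thrombin read from standard curves, bound and free inhibitor derived; Kass is mean equilibrium constant over a compound concentration range, in L/mol.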

factor Xa = molecular target: T2, factor Xa (Homo sapiens, UniProt P00742); test: Serine protease selectivity, Kass, factor Xa chromogenic assay; type: biochemical; details: apparent association constant
T2 construct: Human factors X, Xa, IXa, XIa, and XIIa are purchased from Enzyme Research Laboratories; purchased Enzyme Research Laboratories, South Bend, Ind
T2 sequence (P00742 235-488 limits assumed): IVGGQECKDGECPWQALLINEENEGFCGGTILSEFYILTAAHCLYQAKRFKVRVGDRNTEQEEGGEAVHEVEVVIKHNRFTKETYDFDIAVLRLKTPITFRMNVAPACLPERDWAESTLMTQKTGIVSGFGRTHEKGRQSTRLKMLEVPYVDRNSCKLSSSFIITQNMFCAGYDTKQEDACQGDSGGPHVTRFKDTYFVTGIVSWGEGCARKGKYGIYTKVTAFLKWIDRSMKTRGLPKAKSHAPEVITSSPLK
T2 sequence (P00742 41-179 partner limits assumed): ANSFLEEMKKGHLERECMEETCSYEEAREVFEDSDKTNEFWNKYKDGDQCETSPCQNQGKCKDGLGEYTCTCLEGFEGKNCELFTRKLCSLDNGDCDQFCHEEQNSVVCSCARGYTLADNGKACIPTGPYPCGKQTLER
In short: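 Run as the human thrombin chromogenic assay. Human factor Xa used N-Benzoyl-Ile-Glu-Gly-Arg-p-nitroanilide as substrate. Bovine trypsin used N-Benzoyl-Phe-Val-Arg-p-nitroanilide.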

Human plasmin = molecular target: T3, Human plasmin (Homo sapiens, UniProt P00747); test: Fibrinolytic protease selectivity, Kass, plasmin chromogenic assay; type: biochemical; details: apparent association constant
T3 construct: Human plasmin is purchased from Boehringer Mannheim; purchased Boehringer Mannheim, Indianapolis, Indiana
T3 sequence (P00747 581-810 limits assumed): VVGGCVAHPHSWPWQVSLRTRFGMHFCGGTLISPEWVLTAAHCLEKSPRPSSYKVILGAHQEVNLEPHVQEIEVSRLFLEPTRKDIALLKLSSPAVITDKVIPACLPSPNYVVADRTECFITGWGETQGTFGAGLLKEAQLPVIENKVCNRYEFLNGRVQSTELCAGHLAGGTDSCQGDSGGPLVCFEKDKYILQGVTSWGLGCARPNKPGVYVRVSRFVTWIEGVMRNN
T3 sequence (P00747 97-580 partner limits assumed): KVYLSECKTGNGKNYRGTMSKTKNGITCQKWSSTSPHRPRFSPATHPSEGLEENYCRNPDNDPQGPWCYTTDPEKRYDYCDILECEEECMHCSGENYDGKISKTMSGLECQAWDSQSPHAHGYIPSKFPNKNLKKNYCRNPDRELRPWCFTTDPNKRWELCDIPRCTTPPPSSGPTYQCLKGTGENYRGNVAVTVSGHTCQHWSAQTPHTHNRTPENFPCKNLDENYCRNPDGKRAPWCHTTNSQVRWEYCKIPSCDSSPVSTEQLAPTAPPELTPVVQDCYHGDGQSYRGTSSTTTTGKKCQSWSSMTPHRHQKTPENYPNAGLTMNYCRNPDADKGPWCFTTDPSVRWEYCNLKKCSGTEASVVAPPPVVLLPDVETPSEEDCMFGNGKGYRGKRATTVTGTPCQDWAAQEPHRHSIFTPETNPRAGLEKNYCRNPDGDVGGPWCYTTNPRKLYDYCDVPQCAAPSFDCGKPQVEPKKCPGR
In short: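 Carried out like the human thrombin procedure, with chromogenic substrates H-D-Ile-Pro-Arg-p-nitroanilide for t-PA (single chain nt-PA or mt-PA6) and H-D-Val-Leu-Lys-p-nitroanilide for human plasmin. Inhibition of amidase activity gives association constants.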

SMILES	% oral/i.v. activity (Rat) [1] [%]	Enzyme Kass Human Thrombin (human thrombin) [L/mol × 10^6]	Enzyme Kass Xa (factor Xa) [L/mol × 10^6]	Enzyme Kass Plasmin (Human plasmin) [L/mol × 10^6]
Cl.Cl.N=C(N)NCCC[C@@H](C=O)NC(=O)CN(CCc1ccccc1)C(=O)[C@H]1CCCCN1 [Example 8, D-homoprolyl-N-(2-phenylethyl)glycyl-L-argininal dihydrochloride]	17	87	4.4	0.44
CC(C)CCN(CC(=O)N[C@H](C=O)CCCN=C(N)N)C(=O)[C@H]1CCCCN1.Cl.Cl [Example 6, D--hPro--N(isoamyl)Gly--ArgH.2HCl]	22	16	0.071	0.059
CN(CC(=O)N[C@H](C=O)CCCNC(=N)N)C(=O)[C@H]1CCCCN1.Cl.Cl [Example 1, D-homoprolyl-N-methylglycyl-L-argininal dihydrochloride] (H-[dPip]-[Sar]-Arg-aldehyde)	37	22	0.13	0.031
